According to US20100311741A1, “Bicyclosulfonyl Acid (BCSA) Compounds and Their Use as Therapeutic Agents” (INHIBOX LTD., priority 2007, published 2010):

Tested on: not given
Experiment: not given
Details: not given
For `O=C(CC1NS(=O)(=O)c2ccccc21)NO` (stereo not shown) [Compound (5.37), 2-(1,1-Dioxo-2,3-dihydro-1H-benzo[d]isothiazol-3-yl)-N-hydroxyacetamide], the melting point was 152 to 154 °C. In the case of `COc1ccc(N2C(CC(=O)NO)c3ccccc3S2(=O)=O)cn1` (stereo not shown) [Compound (5.40), 2-[2-(6-Methoxy-pyridin-3-yl)-1,1-dioxo-2,3-dihydro-1Hbenzo[d]isothiazol-3-yl]-N-hydroxyacetamide], the melting point is reported as 189 to 190 °C. In the case of `O=C(CC1c2ccccc2S(=O)(=O)N1C1CCN(Cc2ccccc2)CC1)NO` (stereo not shown) [Compound (5.42), 2-[2-(1-Benzylpiperidin-4-yl)-1,1-dioxo-2,3-dihydro-1H-benzo[d]isothiazol-3-yl]-N-hydroxyacetamide], the melting point is reported as 141 to 143 °C. With `C=CCOc1ccc(N2C(CC(=O)NO)c3ccccc3S2(=O)=O)cc1` (stereo not shown) [Compound (5.47), 2-[2-(4-Allyloxy-phenyl)-1,1-dioxo-2,3-dihydro-1H-benzo[d]isothiazol-3-yl]-N-hydroxyacetamide] the melting point was 166 to 168 °C (dec.). For `O=C(CC1c2ccccc2S(=O)(=O)N1c1ccc(OCc2ccncc2)cc1)NO` (stereo not shown) [Compound (5.48), 2-{1,1-Dioxo-2-[4-(pyridin-4-ylmethoxy)phenyl]-2,3-dihydro-1H-benzo[d]isothiazol-3-yl}-N-hydroxyacetamide], the melting point was 212 to 214 °C (dec.). With `O=C(CC1c2ccccc2S(=O)(=O)N1c1ccc(OCc2ccccn2)cc1)NO` (stereo not shown) [Compound (5.50), 2-{1,1-Dioxo-2-[4-(pyridin-2-ylmethoxy)phenyl]-2,3-dihydro-1H-benzo[d]isothiazol-3-yl}-N-hydroxyacetamide] the melting point was > 170 °C (dec.). In the case of `CCC#CCOc1ccc(N2C(CC(=O)NO)c3ccccc3S2(=O)=O)cc1` (stereo not shown) [Compound (5.52), 2-[1,1-Dioxo-2-(4-pent-2-ynyloxy-phenyl)-2,3-dihydro-1H-benzo[d]isothiazol-3-yl]-N-hydroxyacetamide], the melting point is reported as 135 to 137 °C (dec.). For `C#CCOc1ccc(N2C(CC(=O)NO)c3ccccc3S2(=O)=O)cc1` (stereo not shown) [Compound (5.53), 2-[1,1-Dioxo-2-(4-prop-2-ynyloxy-phenyl)-2,3-dihydro-1H-benzo[d]isothiazol-3-yl]-N-hydroxyacetamide], the melting point was 155 to 157 °C (dec.). For `C#CCCOc1ccc(N2C(CC(=O)NO)c3ccccc3S2(=O)=O)cc1` (stereo not shown) [Compound (5.54), 2-[2-(4-But-3-ynyloxy-phenyl)-1,1-dioxo-2,3-dihydro-1H-benzo[d]isothiazol-3-yl]-N-hydroxyacetamide], the melting point was 148 to 150 °C (dec.). For `Cc1cc(C(C)Oc2ccc(N3C(CC(=O)NO)c4ccccc4S3(=O)=O)cc2)c2ccccc2n1` (stereo not shown) [Compound (5.56), 2-(2-{4-[1-(2-Methylquinolin-4-yl)ethoxy]-phenyl}-1,1-dioxo-2,3-dihydro-1H-benzo[d]isothiazol-3-yl)-N-hydroxyacetamide], the melting point was 200 to 204 °C (dec.). With `O=C(CC1c2ccccc2S(=O)(=O)N1c1ccc(OCc2ccnc3ccccc23)cc1)NO` (stereo not shown) [Compound (5.57), 2-{1,1-Dioxo-2-[4-(quinolin-4-ylmethoxy)phenyl]-2,3-dihydro-1H-benzo[d]isothiazol-3-yl}-N-hydroxyacetamide] the melting point was 218 to 220 °C (dec.). For `Cc1cc(COc2ccc(N3C(CC(=O)NO)c4ccccc4S3(=O)=O)cc2)c2cc(F)ccc2n1` (stereo not shown) [Compound (5.58), 2-{2-[4-(6-Fluoro-2-methyl-quinolin-4-ylmethoxy)-phenyl]-1,1-dioxo-2,3-dihydro-1H-benzo[d]isothiazol-3-yl}-N-hydroxyacetamide], the melting point was > 140 °C (dec.). With `Cc1cc(COc2ccc(N3C(CC(=O)NO)c4ccccc4S3(=O)=O)cc2)c2cc(Cl)ccc2n1` (stereo not shown) [Compound (5.59), 2-{2-[4-(6-Chloro-2-methylquinolin-4-ylmethoxy)-phenyl]-1,1-dioxo-2,3-dihydro-1H-benzo[d]isothiazol-3-yl}-N-hydroxyacetamide] the melting point was > 215 °C (dec.). For `Cc1cc(COc2ccc(N3C(CC(=O)NO)c4ccccc4S3(=O)=O)cc2)ccn1` (stereo not shown) [Compound (5.60), 2-{2-[4-(2-Methyl-pyridin-4-ylmethoxy)-phenyl]-1,1-dioxo-2,3-dihydro-1H-benzo[d]isothiazol-3-yl}-N-hydroxyacetamide], the melting point was > 204 °C (dec.). With `Cc1cc(COc2ccc(N3C(CC(=O)NO)c4ccccc4S3(=O)=O)cc2)cc(C)n1` (stereo not shown) [Compound (5.61), 2-{2-[4-(2,6-Dimethyl-pyridin-4-ylmethoxy)phenyl]-1,1-dioxo-2,3-dihydro-1H-benzo[d]isothiazol-3-yl}-N-hydroxyacetamide] the melting point was > 210 °C (dec.). `COc1ccc2c(c1)C(CC(=O)NO)N(c1ccccc1)S2(=O)=O` (stereo not shown) [Compound (5.62), 2-(5-Methoxy-1,1-dioxo-2-phenyl-2,3-dihydro-1H-benzo[d]isothiazol-3-yl)-N-hydroxyacetamide] showed a melting point of 180 to 182 °C. With `O=C(CC1c2cc3c(cc2S(=O)(=O)N1c1ccccc1)OCCO3)NO` (stereo not shown) [Compound (5.63), 2-(1,1-Dioxo-2-phenyl-2,3,6,7-tetrahydro-1H-5,8-dioxa-thia-2-aza-cyclopenta[b]naphthalen-3-yl)-N-hydroxyacetamide] the melting point was 202 to 204 °C (dec.). For `COc1cc2c(cc1OC)S(=O)(=O)N(c1ccccc1)C2CC(=O)NO` (stereo not shown) [Compound (5.64), 2-(5,6-Dimethoxy-1,1-dioxo-2-phenyl-2,3-dihydro-1H-benzo[d]isothiazol-3-yl)-N-hydroxyacetamide], the melting point was 197 to 199 °C (dec.). `O=C(CC1c2ccc(Br)cc2S(=O)(=O)N1c1ccccc1)NO` (stereo not shown) [Compound (5.68), 2-(6-Bromo-1,1-dioxo-2-phenyl-2,3-dihydro-1H-benzo[d]isothiazol-3-yl)-N-hydroxyacetamide] gave a melting point of 182 to 183 °C.

Target: T1, Human recombinant TACE enzyme (Homo sapiens, UniProt P78536)
T1 construct: purchased R and D Systems, Abingdon, UK 930-ADB
T1 sequence (P78536 215-671 limits assumed): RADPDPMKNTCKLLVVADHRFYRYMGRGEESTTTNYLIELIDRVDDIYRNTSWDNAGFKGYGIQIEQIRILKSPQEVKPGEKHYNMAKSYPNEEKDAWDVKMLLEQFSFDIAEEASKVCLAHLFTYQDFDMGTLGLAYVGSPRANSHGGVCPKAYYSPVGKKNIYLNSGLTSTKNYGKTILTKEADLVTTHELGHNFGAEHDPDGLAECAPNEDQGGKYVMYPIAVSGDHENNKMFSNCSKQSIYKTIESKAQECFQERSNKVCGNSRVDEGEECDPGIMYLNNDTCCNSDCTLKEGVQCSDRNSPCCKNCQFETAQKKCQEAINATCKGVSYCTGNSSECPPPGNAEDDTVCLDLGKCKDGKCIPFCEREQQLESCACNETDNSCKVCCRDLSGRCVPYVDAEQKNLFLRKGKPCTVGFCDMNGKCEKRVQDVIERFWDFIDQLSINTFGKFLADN
Experiment: TACE assay (fluorescent peptide substrate)
Type: biochemical
Details: 3.5 h; single concentration @2 (μM); read-out: Av. TACE Inhibition, % @2
Description: The activity of the compounds as TACE inhibitors was determined using a commercially available peptide substrate (M-2255, Bachem UK Ltd, St. Helens, UK) and recombinant TACE enzyme (930-ADB, R and D Systems, Abingdon, UK). Human recombinant TACE enzyme (5 ng/30 μL) was incubated for 3.5 hour at 37° C. in assay buffer (25 mM Tris.HCl, 2.5 μM ZnCl2, 0.005% Brij 35, pH 8.0) with 5 μM substrate in the presence of test compound (TACE inhibitor). The extent of TACE activity was determined by measurement of the fluorescence (excitation 355 nm, emission 460 nm).
Percent activity (% activity) for each test compound was calculated as:
% activity={(S^C−B)/(S^o−B)}×100
wherein S^C denotes signal measured in the presence of enzyme and the compound being tested, S^o denotes signal measured in the presence of enzyme but in the absence of the compound being tested, and B denotes the background signal measured in the absence of both enzyme and compound being tested. The IC50 corresponds to the concentration which achieves 50% activity.
Work on `O=C(CC1c2ccccc2S(=O)(=O)N1C1CCN(Cc2ccccc2)CC1)NO` (stereo not shown) [IX-044] yielded an inhibition at 2 µM of 0%. In the case of `COc1cc2c(c(OC)c1OC)S(=O)(=O)N(c1ccccc1)C2CC(=O)NO` (stereo not shown) [IX-071], the inhibition at 2 µM is reported as 10%. Work on `COc1cc(OC)c2c(c1)C(CC(=O)NO)N(c1ccccc1)S2(=O)=O` (stereo not shown) [IX-072] yielded an inhibition at 2 µM of 15%. For `Cc1ccc2c(c1)S(=O)(=O)N(c1ccccc1)C2CC(=O)NO` (stereo not shown) [IX-073], the inhibition at 2 µM was 32%. Work on `O=C(CC1c2ccc(Br)cc2S(=O)(=O)N1c1ccccc1)NO` (stereo not shown) [IX-074] yielded an inhibition at 2 µM of 10%. Molecule `O=C(CC1c2ccc(-c3ccccc3)cc2S(=O)(=O)N1c1ccccc1)NO` (stereo not shown) [IX-079] has an inhibition at 2 µM of 4%. With `COc1cccc2c1C(CC(=O)NO)N(c1ccccc1)S2(=O)=O` (stereo not shown) [IX-082] the inhibition at 2 µM was 35%. Molecule `O=C(CC1c2cccc(C(F)(F)F)c2S(=O)(=O)N1c1ccccc1)NO` (stereo not shown) [IX-084] has an inhibition at 2 µM of 0%. For `Cc1cc(F)c2c(c1)C(CC(=O)NO)N(c1ccccc1)S2(=O)=O` (stereo not shown) [IX-085], the inhibition at 2 µM was 57%. In the case of `O=C(CC1c2c(ccc(F)c2Cl)S(=O)(=O)N1c1ccccc1)NO` (stereo not shown) [IX-086], the inhibition at 2 µM is reported as 20%. Work on `O=C(CC1c2cccc(Cl)c2S(=O)(=O)N1c1ccccc1)NO` (stereo not shown) [IX-088] yielded an inhibition at 2 µM of 34%. `O=C(CC1c2c(Cl)cc(Cl)cc2S(=O)(=O)N1c1ccccc1)NO` (stereo not shown) [IX-089] showed an inhibition at 2 µM of 0%. In the case of `O=C(CC1c2ccc(C(F)(F)F)cc2S(=O)(=O)N1c1ccccc1)NO` (stereo not shown) [IX-090], the inhibition at 2 µM is reported as 10%. For `COc1cccc2c1S(=O)(=O)N(c1ccccc1)C2CC(=O)NO` (stereo not shown) [IX-091], the inhibition at 2 µM was 13%. In the case of `COc1cc(Cl)cc2c1S(=O)(=O)N(c1ccccc1)C2CC(=O)NO` (stereo not shown) [IX-092], the inhibition at 2 µM is reported as 23%. `COc1ccc2c(c1Cl)C(CC(=O)NO)N(c1ccccc1)S2(=O)=O` (stereo not shown) [IX-093] gave an inhibition at 2 µM of 29%.

Same assay, conditions: 3.5 h; single concentration @100 (μM); read-out: Av. TACE Inhibition, % @100
Molecule `COc1ccccc1N1C(CC(=O)NO)c2ccccc2S1(=O)=O` (stereo not shown) [IX-008] has an inhibition at 100 µM of 50%. `O=C(CC1c2ccccc2S(=O)(=O)N1c1cccc(Oc2ccccc2)c1)NO` (stereo not shown) [IX-011] gave an inhibition at 100 µM of 86%. Work on `CSc1cccc(N2C(CC(=O)NO)c3ccccc3S2(=O)=O)c1` (stereo not shown) [IX-013] yielded an inhibition at 100 µM of 93%. `O=C(CC1c2ccccc2S(=O)(=O)N1c1cccc(C(F)(F)F)c1)NO` (stereo not shown) [IX-014] showed an inhibition at 100 µM of 81%. With `O=C(CC1c2ccccc2S(=O)(=O)N1c1cccc(OC(F)(F)F)c1)NO` (stereo not shown) [IX-015] the inhibition at 100 µM was 54%. With `O=C(CC1c2ccccc2S(=O)(=O)N1c1cccc(-c2ccccc2)c1)NO` (stereo not shown) [IX-017] the inhibition at 100 µM was 97%. In the case of `O=C(CC1c2ccccc2S(=O)(=O)N1c1ccc(C(F)(F)F)cc1)NO` (stereo not shown) [IX-019], the inhibition at 100 µM is reported as 55%. Molecule `CC(C)c1ccc(N2C(CC(=O)NO)c3ccccc3S2(=O)=O)cc1` (stereo not shown) [IX-024] has an inhibition at 100 µM of 50%. `O=C(CC1c2ccccc2S(=O)(=O)N1c1ccc(-n2cncn2)cc1)NO` (stereo not shown) [IX-030] showed an inhibition at 100 µM of 54%. For `O=C(CC1c2ccccc2S(=O)(=O)N1c1ccc(-c2cnco2)cc1)NO` (stereo not shown) [IX-031], the inhibition at 100 µM was 70%. For `O=C(CC1c2ccccc2S(=O)(=O)N1c1ccc(N2CCOCC2)cc1)NO` (stereo not shown) [IX-034], the inhibition at 100 µM was 36%. With `O=C(CC1NS(=O)(=O)c2ccccc21)NO` (stereo not shown) [IX-039] the inhibition at 100 µM was 28%. `CN1C(CC(=O)NO)c2ccccc2S1(=O)=O` (stereo not shown) [IX-040] gave an inhibition at 100 µM of 28%. In the case of `CN(C)CCOc1ccc(N2C(CC(=O)NO)c3ccccc3S2(=O)=O)cc1` (stereo not shown) [IX-051], the inhibition at 100 µM is reported as 81%. In the case of `O=C(CC1c2ccccc2S(=O)(=O)N1c1ccc(OCCN2CCOCC2)cc1)NO` (stereo not shown) [IX-052], the inhibition at 100 µM is reported as 53%. Molecule `O=C(CCC1c2ccccc2S(=O)(=O)N1c1ccccc1)NO` (stereo not shown) [IX-094] has an inhibition at 100 µM of 26%. `O=C(NO)C1c2ccccc2S(=O)(=O)N1c1ccccc1` (stereo not shown) [IX-095] showed an inhibition at 100 µM of 38%.
